Reference: US20240307453A1, “METHODS FOR CONTROLLING BLEEDING IN A SUBJECT AFFLICTED WITH HERMANSKY PUDLAK SYNDROME USING PLATELET DERIVATIVE COMPOSITIONS” (Cellphire, Inc., priority 2023, published 2024)

Key:
washed platelets (WPS) = experiment: Mixed aggregation of washed FPH with washed platelets (WPS) with and without EDTA and agonists; format: cell-based, human; conditions: 5 mM EDTA
Description: This was repeated 5 times. […] In one of the duplicates, EDTA was added to achieve a 5 mM concentration. […] These samples were prepared immediately prior to running on the PAP-8E Platelet Aggregometer. The different agonist were prediluted in HMTA according: arachidonic acid (Helena Biosciences, Helena-biosciences.com) 1:10 in HMTA, TRAP-6 (Tocris, tocris.com) by adding 7.5 μl to 292.5 μl HMTA.
The PAP-8E Platelet Aggregometer was turned on and samples were incubated with stirring for 10 minutes at 37° C. for all mixed aggregation experiments. The samples with HMTA was used as a control for agonists used in aggregation. The following agonists were used to induce aggregation in samples: 10 μg/ml collagen (Helena Biosciences, Helena-biosciences.com), 10U/ml thrombin (Helena Biosciences, Helena-biosciences.com), 10 μg/ml arachidonic acid, and 10 μM TRAP-6. 225 μl of the samples were added to cuvettes by reverse pipetting and inserted in the channels. Cuvettes were transferred from the warming wells to the testing wells. The test was started and 25 μl of each agonist was added to the appropriate cuvettes when the timer for the channel reached 8:00 minutes. HMTA was added in place of the agonist to the first channel in each module. Once measurements were completed for each agonist, the samples were transferred to a microcentrifuge tube and AcT count was taken. […]

[1] = test system: fibrinogen, GPIIIa (CD61), complexed GPIIb/IIIa (CD41); conditions: 5 mM EDTA
Description: EDTA (Sigma Aldrich, sigmaaldrich.com) was added to one of the duplicates to achieve a 5 mM concentration. […] Stain volumes were as follows: Unstained: 10 μl of sample and 20 μl HMTA, 9F9: 10 μl of sample, 5 μl antibody, and 15 μl HMTA, CD41: 5 μl of sample and 12 μl antibody, and CD61: 10 μl of sample, 10 μl antibody, and 10 μl HMTA. Stained samples were incubated for 20 minutes for 9F9, CD61, and vWF and 5 minutes for CD41. 470 μl of the samples were added to 9F9 and CD61 stains and 233 μl of the samples were added to CD41 stains. 100 μl of each sample was transferred to wells in a 96-well plate. All samples were measured using the Quanteon flow cytometer.

FXa = target: T1, FXa (Homo sapiens, UniProt P00742); experiment: FPH thrombin generation response to Factor X blocking by rivaroxaban; format: biochemical; conditions: dose dependent blocking of Factor X
T1 construct: tissue Octophrama (so in the source); host or cells: Octaplas plasma mixed with FPH
T1 sequence (P00742 235-488 limits assumed): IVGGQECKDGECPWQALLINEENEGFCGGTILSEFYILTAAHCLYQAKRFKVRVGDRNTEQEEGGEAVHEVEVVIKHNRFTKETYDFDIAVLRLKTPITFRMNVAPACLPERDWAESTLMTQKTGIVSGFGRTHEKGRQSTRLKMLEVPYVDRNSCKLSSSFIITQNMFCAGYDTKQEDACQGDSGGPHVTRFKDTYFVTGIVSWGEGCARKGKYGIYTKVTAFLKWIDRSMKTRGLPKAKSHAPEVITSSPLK
T1 sequence (P00742 41-179 limits assumed): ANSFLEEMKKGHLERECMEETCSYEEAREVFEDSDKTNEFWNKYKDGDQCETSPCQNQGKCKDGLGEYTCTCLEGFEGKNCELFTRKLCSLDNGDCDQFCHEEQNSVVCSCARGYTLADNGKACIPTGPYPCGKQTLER
Description: Rivaroxaban (Cayman Chemical, caymanchem.com) was diluted in TGA dilution buffer to 0 μg/ml, […], 350 ng/ml, and 70 ng/ml. 60 mM GPRP (BACHEM, bachem.com), thrombin (Sigma Aldrich, sigmaaldrich.com) and Octoplas (Octophrama, octopharma.com) were thawed according to manufacturer's guidelines. CLARIOstarPlus was used to perform TGA. A master mix of Octaplas, PRP reagent (Diagnostica Stago, Cat. No. 86196), and GPRP was prepared in a ratio of 68:15:5, respectively. Flu substrate and Fluo-buffer were combined according to manufacturer's guidelines to create FluCa (Diagnostica Stago, stago.com). Master mix and FluCa solution were placed in the 37° C. air incubator with agitation for 45±5 minutes. […] 10 μl of each sample was dispensed into selected wells of a 96-well plate (Corning, corning.com) by reverse pipetting. TGA dilution buffer for thrombin was used in the thrombin standard ladder. […] CLARIOstarPlus injectors 1 and 2 were primed with master mix and FluCa solution with 250 μl, then the injector was placed in the active position. The CLARIOstarPlus TGA program was loaded with parameters for TGA assay with injectors set to add 90 μl of master mix and 40 μl of FluCa solution to each well. Plate was inserted to be read.

[2] = test system: FPH aggregation (GpIIbIIIa); conditions: 5 mM MgCl2, FPH 250 k/μL, tirofiban present
Description: A master mix of FPH or APU was prepared by combining cells dosed at 250 k/μL with HMTA to arrive at enough volume to fill 225 μl of sample into 8 cuvettes, plus extra buffer volume if necessary. 225 μl of master mix was transferred to cuvettes as specified along with a magnetic stir bar in each cuvette. […] The groups tested were as follows. (+) indicates the presence while (−) indicates the absence of the specified reagent: • 0.32 mM DMSO−/5 mM Mg−/1 mM Tiro− (negative control) • 0.32 mM DMSO+/5 mM Mg−/1 mM Tiro− (negative control) • 0.32 mM DMSO−/5 mM Mg+/1 mM Tiro− (positive control) • 0.32 mM DMSO+/5 mM Mg+/1 mM Tiro− (positive control) • 0.32 mM DMSO+/5 mM Mg−/1 mM Tiro− (#of samples=2) • 0.32 mM DMSO+/5 mM Mg−/1 mM Tiro− (#of samples=2)

GpIIbIIa receptor = target: T2, GpIIbIIa receptor (Homo sapiens, UniProt P05106+P08514); experiment: Mixed aggregation of washed FPH with washed platelets with and without RGDS; format: cell-based; conditions: 1 mM RGDS
T2 construct: endogenous in cells; host or cells: FPH (freeze-dried human platelet derivatives); in A8 also washed platelets from healthy donors
Description: For one of the replicates of each, RGDS was added to achieve a 1 mM concentration. […] The mixture was prepared immediately prior to running on the PAP-8E Platelet Aggregometer. PAP-8E was turned on and samples were incubated with stirring for 10 minutes at 37° C. and HMTA was used as a control for collagen agonist used in aggregation. Stir bars were added to cuvettes and 225 μl of sample was added to cuvettes by reverse pipetting and inserted into channels. Cuvettes were then transferred from warming wells to the testing wells. Run was started for each channel with 10 seconds in between. 25 μl of collagen (Helena Biosciences, helenabiosciences.com) was added to appropriate cuvettes when the timer for the channel reached 8:00 minutes. HMTA was added in place of the agonist to the first channel as a control. After measurement was completed for collagen agonist, each sample was transferred to a microcentrifuge tube and AcT count was taken.

[3] = test system: FPH aggregation (surface fibrinogen); experiment: MgCl2 aggregation dose response after plasmin treatment of FPH; format: cell-based, human; conditions: 0, 2, 5, 10 mM MgCl2, plasmin 1 hour
Description: Both master mixes were incubated at room temperature with agitation for 1 hour. […] Magnetic stir bars were placed in all the cuvettes. […] Each concentration of MgCl2 to be tested was prepared in duplicate. […] Plasmin causes the breakdown of fibrinogen.

[4] = target: T3, fibrinogen on the surface of FPH (Homo sapiens, UniProt P02671+P02675+P02679); experiment: Surface marker detection of washed FPH at different plasmin concentrations; format: cell-based; conditions: 0, 1.46, 2.92, 14.6, 29.2 nkat/ml plasmin, 1 hour
T3 construct: endogenous in cells; host or cells: washed FPH (freeze-dried human platelet derivatives)
T3 sequence (P02671 20-629 limits assumed): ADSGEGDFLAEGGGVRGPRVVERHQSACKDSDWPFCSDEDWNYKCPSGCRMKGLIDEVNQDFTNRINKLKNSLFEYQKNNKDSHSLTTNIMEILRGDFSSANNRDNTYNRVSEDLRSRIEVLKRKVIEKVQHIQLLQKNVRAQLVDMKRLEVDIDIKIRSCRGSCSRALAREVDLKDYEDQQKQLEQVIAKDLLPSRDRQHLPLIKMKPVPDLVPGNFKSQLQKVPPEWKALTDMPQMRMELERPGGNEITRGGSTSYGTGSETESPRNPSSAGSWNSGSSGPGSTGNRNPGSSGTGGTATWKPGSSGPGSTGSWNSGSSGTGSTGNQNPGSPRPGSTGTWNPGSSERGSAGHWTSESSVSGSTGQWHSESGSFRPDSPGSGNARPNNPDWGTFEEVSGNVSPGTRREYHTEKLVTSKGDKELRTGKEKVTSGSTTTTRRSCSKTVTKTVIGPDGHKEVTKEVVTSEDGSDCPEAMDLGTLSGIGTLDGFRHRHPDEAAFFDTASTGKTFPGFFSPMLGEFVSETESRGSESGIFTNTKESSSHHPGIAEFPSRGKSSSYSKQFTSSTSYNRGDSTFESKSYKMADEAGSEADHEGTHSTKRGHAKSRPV
T3 sequence (P02675 31-491): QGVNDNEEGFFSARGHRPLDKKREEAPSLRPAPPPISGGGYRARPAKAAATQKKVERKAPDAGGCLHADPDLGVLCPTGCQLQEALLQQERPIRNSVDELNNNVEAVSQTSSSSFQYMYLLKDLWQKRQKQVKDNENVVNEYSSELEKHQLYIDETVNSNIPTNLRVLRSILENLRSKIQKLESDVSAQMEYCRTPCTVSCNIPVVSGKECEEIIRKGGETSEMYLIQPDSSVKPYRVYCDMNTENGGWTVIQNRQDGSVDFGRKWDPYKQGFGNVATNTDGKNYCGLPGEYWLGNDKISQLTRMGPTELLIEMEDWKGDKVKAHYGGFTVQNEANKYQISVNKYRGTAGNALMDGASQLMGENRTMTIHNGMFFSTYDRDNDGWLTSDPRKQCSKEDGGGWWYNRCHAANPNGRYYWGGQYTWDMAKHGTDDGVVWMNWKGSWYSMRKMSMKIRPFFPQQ
T3 sequence (P02679 27-453): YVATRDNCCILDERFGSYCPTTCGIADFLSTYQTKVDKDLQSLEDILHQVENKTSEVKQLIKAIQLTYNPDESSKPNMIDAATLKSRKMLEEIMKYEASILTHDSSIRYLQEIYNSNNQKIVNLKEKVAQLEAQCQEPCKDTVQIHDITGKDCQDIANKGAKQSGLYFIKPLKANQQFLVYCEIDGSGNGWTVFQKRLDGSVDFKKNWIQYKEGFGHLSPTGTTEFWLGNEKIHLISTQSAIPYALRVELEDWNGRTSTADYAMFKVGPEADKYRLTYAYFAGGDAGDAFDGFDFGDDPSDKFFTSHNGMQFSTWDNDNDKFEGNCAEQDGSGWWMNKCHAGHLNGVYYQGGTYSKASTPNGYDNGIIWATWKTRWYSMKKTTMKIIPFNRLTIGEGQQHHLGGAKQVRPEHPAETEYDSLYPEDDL

[5] = test system: aggregation of washed FPH with washed platelets; experiment: Mixed aggregation of washed FPH with washed platelets with and without plasmin; format: cell-based, human; conditions: plasmin-treated washed FPH mixed with WPS
Description: This was repeated for optimal concentration of plasmin added based on flow results. To initiate spontaneous aggregation between the washed platelets and washed FPH the following steps were performed for the mixed samples. Stir bars were added to cuvettes, 225 μl of sample was added to the cuvettes by reverse pipetting and inserted into channels. The cuvettes were transferred from the warming wells to the testing wells. The run was started for each channel with 10 seconds in between. 25 μl of HMTA was added to all cuvettes once the timer for the channel reached 8:00 minutes. After measurements were completed, each sample was transferred to a microcentrifuge tube and AcT counts were taken.

[6] = washed FPH and washed platelets

What does the source list for O=C(O)CN(CCN(CC(=O)O)CC(=O)O)CC(=O)O [EDTA]?
effect on aggregation between washed FPH and washed platelets (washed platelets (WPS)): prevents aggregation; Bound fibrinogen with addition of EDTA ([1]; washed FPH): decreases slightly; CD61 (GpIIIa) signal with addition of EDTA [1, 6]: decreased slightly; drop in the GpIIbIIIa complex (CD41) with addition of EDTA [1, 6]: more than half

O=C(NC[C@H]1CN(c2ccc(N3CCOCC3=O)cc2)C(=O)O1)c1ccc(Cl)s1 [Rivaroxaban] was tested. Which “thrombin generation of FPH” value (FXa) did it give?
Its value is “decreasing thrombin generation”.

What about the “maximum peak time of thrombin generation of FPH” value (FXa; 1:64 dilution) of the same molecule?
Its value is “increasing maximum peak time”.

CCCCS(=O)(=O)N[C@@H](Cc1ccc(OCCCCC2CCNCC2)cc1)C(=O)O [tirofiban] was tested. Which “effect on divalent cation induced aggregation of FPH” value [2] did it give?
Its value is “abrogated”.

“Arg-Gly-Asp-Ser (RGDS; printed: Arg-Gly-Asp-Ser) [GpIIbIIa receptor antagonist RGDS peptide]” was tested. Which “effect on mixed aggregation of washed FPH and washed platelets” value (GpIIbIIa receptor) did it give?
The value was “inhibited aggregation”.

And the “fold lower platelet counts in untreated mixed sample in comparison to the treated mixed sample” value (GpIIbIIa receptor)?
Its value is greater than 2 fold.

B1: plasmin: Plasmin causes the breakdown of fibrinogen (protein, UniProt P00747 20-580; P00747 581-810, looked up)
Plasmin heavy chain A: EPLDDYVNTQGASLFSVTKKQLGAGSIEECAAKCEEDEEFTCRAFQYHSKEQQCVIMAENRKSSIIIRMRDVVLFEKKVYLSECKTGNGKNYRGTMSKTKNGITCQKWSSTSPHRPRFSPATHPSEGLEENYCRNPDNDPQGPWCYTTDPEKRYDYCDILECEEECMHCSGENYDGKISKTMSGLECQAWDSQSPHAHGYIPSKFPNKNLKKNYCRNPDRELRPWCFTTDPNKRWELCDIPRCTTPPPSSGPTYQCLKGTGENYRGNVAVTVSGHTCQHWSAQTPHTHNRTPENFPCKNLDENYCRNPDGKRAPWCHTTNSQVRWEYCKIPSCDSSPVSTEQLAPTAPPELTPVVQDCYHGDGQSYRGTSSTTTTGKKCQSWSSMTPHRHQKTPENYPNAGLTMNYCRNPDADKGPWCFTTDPSVRWEYCNLKKCSGTEASVVAPPPVVLLPDVETPSEEDCMFGNGKGYRGKRATTVTGTPCQDWAAQEPHRHSIFTPETNPRAGLEKNYCRNPDGDVGGPWCYTTNPRKLYDYCDVPQCAAPSFDCGKPQVEPKKCPGR
Plasmin light chain B: VVGGCVAHPHSWPWQVSLRTRFGMHFCGGTLISPEWVLTAAHCLEKSPRPSSYKVILGAHQEVNLEPHVQEIEVSRLFLEPTRKDIALLKLSSPAVITDKVIPACLPSPNYVVADRTECFITGWGETQGTFGAGLLKEAQLPVIENKVCNRYEFLNGRVQSTELCAGHLAGGTDSCQGDSGGPLVCFEKDKYILQGVTSWGLGCARPNKPGVYVRVSRFVTWIEGVMRNN
modifications: Plasmin
notes: Plasmin causes the breakdown of fibrinogen
With B1 as the molecule, how does the “FPH aggregation response to MgCl2 after plasmin treatment” value [3] read?
The value was “no dose dependent response”.

And the “effect on fibrinogen on the surface of FPH” value [4]?
Its value is “degrades fibrinogen on the surface of FPH”.

What about the “effect on aggregation of washed FPH with washed platelets” value [5] of the same molecule?
Its value is “inhibits the aggregation”.
